Data taken from PubChem BioAssay (NCI).
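Interpolation was linear, between the two tested concentrations surrounding the appropriate level; five concentrations were tested over 48 hours in 96-well plates. TGI is the concentration that stops growth completely.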

What was measured:
Experiment in all cases: NCI anticancer screen, dose series, 48 h
786-0 renal = test system: 786-0 renal
ACHN renal = test system: ACHN renal
BT-549 breast = test system: BT-549 breast

Compound	TGI (786-0 renal) [µM]	TGI (ACHN renal) [µM]	TGI (BT-549 breast) [µM]
Clc1nc(Cl)c(Cl)c(Cl)n1	41.4	26	42.4
CCOC(=O)c1sc2nc(SC)nc3c2c1NC(=O)CN3c1cccc(F)c1		27.3	21.3
CC(=O)NCCC1CN(C(=O)/C=C\C#C[Si](C)(C)C)c2ccccc21 (stereo unspecified)		> 100	> 100
O=C(Nc1c[nH]c(=O)[nH]c1=O)C(Cl)Cl	> 100	> 100	
O=C1CC(=O)c2c(O)cc(O)c(c2O)-c2c(ccc(O)c2O)C2=CC(=O)c3c(O)cc(O)c(c3O2)-c2c1ccc(O)c2O (tested in a mixture with another compound)			> 50
O=C(CC/C=C(/CS(=O)(=O)c1ccccc1)S(=O)(=O)c1ccccc1)c1ccccc1		> 100	
